Reference: ChEMBL document CHEMBL1201862, “PubChem BioAssay data set” (2004)
Calls of active or inactive are those of the source.

Experiments:
Protein skinhead-1 = biological target: T1, Protein skinhead-1 (Caenorhabditis elegans, UniProt P34707); assay type: functional
T1 sequence (P34707 whole entry): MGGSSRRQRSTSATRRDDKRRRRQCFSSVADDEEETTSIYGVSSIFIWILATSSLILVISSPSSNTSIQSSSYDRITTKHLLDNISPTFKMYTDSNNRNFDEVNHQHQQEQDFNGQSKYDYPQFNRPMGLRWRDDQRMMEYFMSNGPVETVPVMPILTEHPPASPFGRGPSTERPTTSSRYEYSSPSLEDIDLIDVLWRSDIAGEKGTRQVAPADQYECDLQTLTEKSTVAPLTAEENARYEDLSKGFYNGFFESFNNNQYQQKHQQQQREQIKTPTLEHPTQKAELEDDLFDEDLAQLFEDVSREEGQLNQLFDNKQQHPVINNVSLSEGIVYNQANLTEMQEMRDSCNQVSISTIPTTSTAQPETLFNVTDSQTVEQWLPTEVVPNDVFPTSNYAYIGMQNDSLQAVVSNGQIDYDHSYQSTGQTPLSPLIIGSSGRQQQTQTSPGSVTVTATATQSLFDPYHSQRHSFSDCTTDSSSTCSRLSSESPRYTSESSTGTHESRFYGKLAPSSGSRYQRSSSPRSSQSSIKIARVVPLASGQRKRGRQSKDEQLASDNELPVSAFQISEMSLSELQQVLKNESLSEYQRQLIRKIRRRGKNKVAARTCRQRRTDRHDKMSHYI

Cytochrome P450 2D6 = Cytochrome P450 2D6 (Homo sapiens, UniProt P10635);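 note: CYP2D6 member of a cytochrome P450 panel assay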
Cytochrome P450 2D6, sequence (P10635 whole entry): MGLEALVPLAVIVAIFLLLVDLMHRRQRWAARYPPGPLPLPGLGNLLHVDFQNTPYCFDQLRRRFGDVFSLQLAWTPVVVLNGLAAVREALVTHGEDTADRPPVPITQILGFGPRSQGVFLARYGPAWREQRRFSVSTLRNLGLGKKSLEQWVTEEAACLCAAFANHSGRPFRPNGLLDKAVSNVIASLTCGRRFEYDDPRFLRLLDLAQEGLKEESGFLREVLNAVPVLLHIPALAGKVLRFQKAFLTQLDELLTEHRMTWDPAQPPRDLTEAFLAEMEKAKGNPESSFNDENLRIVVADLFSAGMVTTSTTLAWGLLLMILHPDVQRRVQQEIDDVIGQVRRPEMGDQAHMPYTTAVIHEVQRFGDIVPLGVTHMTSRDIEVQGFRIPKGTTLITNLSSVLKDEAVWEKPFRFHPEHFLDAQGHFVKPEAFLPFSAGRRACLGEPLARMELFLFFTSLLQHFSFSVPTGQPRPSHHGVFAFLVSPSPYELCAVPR

Fatty acid synthase [1] = biological target: T2, Fatty acid synthase (Homo sapiens, UniProt P49327); experiment: inhibition of human FAS-TE enzyme activity – biochemical, endpoint fluorescence intensity, uHTS hits, dose response (AID 624327); assay type: functional;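 note: fluorescence from hydrolysis of an O-methyl fluorescein acyl ester substrate by the enzyme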
T2 sequence (P49327 whole entry): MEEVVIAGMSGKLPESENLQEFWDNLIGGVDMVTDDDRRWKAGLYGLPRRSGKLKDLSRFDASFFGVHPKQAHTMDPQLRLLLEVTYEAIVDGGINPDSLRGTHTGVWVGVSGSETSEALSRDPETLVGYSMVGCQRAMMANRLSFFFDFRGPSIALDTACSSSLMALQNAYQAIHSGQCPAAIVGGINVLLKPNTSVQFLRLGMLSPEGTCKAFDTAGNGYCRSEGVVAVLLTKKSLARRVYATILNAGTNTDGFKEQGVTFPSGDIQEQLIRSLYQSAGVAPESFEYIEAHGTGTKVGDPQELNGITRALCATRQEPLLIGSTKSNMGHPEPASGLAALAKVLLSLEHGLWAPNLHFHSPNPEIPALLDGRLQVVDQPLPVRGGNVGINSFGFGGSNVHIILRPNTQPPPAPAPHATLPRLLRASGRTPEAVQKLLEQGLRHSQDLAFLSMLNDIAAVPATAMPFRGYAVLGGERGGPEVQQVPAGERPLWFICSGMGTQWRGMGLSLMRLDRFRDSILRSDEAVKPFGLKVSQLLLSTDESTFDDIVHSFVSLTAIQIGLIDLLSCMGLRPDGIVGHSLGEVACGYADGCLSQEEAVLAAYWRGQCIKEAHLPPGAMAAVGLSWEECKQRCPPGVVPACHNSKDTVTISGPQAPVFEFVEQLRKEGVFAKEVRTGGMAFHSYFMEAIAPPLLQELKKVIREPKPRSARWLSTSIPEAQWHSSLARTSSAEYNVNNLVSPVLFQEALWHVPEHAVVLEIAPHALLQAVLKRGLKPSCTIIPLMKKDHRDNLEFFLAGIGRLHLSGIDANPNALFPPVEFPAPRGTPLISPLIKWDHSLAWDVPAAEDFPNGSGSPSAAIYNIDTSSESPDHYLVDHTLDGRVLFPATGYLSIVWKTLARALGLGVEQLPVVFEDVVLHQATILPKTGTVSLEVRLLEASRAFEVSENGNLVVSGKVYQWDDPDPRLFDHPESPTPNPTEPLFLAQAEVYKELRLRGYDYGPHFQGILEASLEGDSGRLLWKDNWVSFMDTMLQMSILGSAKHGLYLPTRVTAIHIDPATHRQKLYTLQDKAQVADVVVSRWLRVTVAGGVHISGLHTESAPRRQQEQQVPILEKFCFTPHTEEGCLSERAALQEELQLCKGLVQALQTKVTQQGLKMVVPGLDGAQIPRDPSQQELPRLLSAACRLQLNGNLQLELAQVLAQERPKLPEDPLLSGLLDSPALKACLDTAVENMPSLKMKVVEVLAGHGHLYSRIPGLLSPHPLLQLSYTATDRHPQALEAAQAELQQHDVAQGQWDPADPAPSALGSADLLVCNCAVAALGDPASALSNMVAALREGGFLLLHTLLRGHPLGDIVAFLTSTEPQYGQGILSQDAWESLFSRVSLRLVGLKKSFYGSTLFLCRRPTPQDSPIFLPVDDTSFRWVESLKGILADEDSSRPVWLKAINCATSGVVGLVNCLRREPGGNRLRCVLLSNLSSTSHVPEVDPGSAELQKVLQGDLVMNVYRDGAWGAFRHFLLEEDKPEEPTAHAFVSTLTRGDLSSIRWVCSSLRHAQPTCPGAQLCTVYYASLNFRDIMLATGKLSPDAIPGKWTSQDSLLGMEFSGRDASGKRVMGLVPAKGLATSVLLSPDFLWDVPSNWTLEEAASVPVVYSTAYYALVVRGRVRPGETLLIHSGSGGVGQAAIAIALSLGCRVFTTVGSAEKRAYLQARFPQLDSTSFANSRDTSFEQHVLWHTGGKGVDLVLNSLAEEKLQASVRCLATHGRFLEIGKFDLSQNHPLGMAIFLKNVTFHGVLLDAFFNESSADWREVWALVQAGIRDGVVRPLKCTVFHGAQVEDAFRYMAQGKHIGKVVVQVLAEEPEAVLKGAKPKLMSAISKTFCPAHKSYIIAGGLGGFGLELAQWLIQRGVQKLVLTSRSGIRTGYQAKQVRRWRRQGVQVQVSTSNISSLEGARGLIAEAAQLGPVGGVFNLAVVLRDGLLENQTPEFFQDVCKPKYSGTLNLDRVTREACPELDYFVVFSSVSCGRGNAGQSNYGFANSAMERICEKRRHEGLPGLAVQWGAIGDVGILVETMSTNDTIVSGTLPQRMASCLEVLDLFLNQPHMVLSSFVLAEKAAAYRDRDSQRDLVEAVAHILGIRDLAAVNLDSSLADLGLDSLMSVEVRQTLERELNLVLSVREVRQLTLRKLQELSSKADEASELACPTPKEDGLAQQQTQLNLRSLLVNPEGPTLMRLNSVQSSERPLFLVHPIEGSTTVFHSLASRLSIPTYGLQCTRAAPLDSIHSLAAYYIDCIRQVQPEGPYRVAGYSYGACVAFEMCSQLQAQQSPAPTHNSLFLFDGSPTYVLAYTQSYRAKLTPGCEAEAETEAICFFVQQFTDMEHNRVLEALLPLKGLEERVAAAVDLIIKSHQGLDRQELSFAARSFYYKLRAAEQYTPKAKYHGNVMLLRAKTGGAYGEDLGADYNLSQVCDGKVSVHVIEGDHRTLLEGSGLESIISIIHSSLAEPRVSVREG

Fatty acid synthase [2] = biological target: T2, Fatty acid synthase; experiment: inhibition of human FAS-TE enzyme activity – biochemical, kinetic fluorescence intensity, dose response (AID 624326); assay type: functional;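 note: rate of fluorescence rise from hydrolysis of a fluorogenic O-methyl fluorescein ester substrate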
BJ [3] = experiment: BJ-TERT-LT-ST fibroblast viability loss – cell-based, RAS-independent, luminescence, dose response (AID 1935); assay type: functional; settings: Homo sapiens;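 note: BJ fibroblasts immortalized with TERT plus LT and ST oncogenes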
Protein RecA = biological target: T3, Protein RecA (Mycobacterium tuberculosis, UniProt P9WHJ3); experiment: Fluorescence Cell-Free Homogeneous Dose Retest to Identify Inhibitors of RecA-Intein Splicing Activity. [Related pubchem assays (depositor defined):AID2097, AID2223, AID489010, AID492950]; assay type: functional
T3 sequence (P9WHJ3 whole entry): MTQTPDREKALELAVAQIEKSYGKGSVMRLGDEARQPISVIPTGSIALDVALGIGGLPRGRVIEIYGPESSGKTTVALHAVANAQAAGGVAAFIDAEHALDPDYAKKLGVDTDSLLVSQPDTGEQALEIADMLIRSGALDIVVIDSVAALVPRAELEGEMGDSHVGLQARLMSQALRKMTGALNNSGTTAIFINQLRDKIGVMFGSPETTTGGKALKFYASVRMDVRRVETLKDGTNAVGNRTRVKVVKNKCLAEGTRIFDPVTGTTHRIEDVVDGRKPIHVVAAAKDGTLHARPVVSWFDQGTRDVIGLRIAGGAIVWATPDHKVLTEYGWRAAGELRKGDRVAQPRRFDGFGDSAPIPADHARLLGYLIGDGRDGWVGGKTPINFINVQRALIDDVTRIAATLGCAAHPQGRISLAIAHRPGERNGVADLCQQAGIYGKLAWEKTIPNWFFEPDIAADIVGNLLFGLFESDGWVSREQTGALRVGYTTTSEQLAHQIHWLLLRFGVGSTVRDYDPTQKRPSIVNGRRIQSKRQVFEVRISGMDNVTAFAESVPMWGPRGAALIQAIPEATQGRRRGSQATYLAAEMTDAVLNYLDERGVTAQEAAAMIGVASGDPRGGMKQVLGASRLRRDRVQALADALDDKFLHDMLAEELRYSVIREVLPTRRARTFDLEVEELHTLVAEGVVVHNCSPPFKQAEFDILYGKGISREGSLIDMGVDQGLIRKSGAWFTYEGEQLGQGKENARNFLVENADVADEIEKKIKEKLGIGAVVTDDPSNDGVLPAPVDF

BJ [4] = experiment: BJ-TERT fibroblast viability loss – cell-based, RAS-independent, luminescence, dose response (AID 1933); assay type: functional; settings: Homo sapiens
[5] = DRD fibroblast viability loss – cell-based, non-viral oncogenic, luminescence, dose response (AID 1934); assay type: functional; settings: Homo sapiens
[6] = biological target: Luciferin 4-monooxygenase (Photinus pyralis, UniProt P08659); experiment: inhibition of purified Photinus pyralis luciferase – biochemical, luminescence, dose response (AID 1891)
Luciferin 4-monooxygenase, sequence (P08659 whole entry): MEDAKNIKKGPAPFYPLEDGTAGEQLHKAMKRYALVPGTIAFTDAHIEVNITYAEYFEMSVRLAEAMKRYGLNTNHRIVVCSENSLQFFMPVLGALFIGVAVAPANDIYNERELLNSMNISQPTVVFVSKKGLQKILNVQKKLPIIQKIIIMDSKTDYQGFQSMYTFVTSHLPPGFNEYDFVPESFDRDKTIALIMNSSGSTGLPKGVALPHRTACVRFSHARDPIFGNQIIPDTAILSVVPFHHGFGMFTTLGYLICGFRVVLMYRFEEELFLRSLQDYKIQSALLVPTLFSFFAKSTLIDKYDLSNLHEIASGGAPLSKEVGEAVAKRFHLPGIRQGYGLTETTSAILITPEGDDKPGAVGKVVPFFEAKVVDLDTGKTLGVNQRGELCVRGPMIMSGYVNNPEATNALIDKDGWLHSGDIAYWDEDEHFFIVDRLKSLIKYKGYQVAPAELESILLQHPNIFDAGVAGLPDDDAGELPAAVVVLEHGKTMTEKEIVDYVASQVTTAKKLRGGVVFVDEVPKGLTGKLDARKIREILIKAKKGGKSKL

[7] = Luminescence Cell-Based Dose Confirmation HTS to Identify Inhibitors of Platelet Dense Granule Release. [Related pubchem assays: 1663 (Primary HTS), 1678 (Summary of Project)]; assay type: functional
BJ [8] = experiment: cells; assay type: functional, cell-based; settings: Homo sapiens
[9] = biological target: T4, Replicative DNA helicase DnaB (Mycobacterium tuberculosis, UniProt P9WMR3); experiment: DnaB intein splicing inhibitors, dose response, biochemical, cell-free fluorescence (AID 449749); assay type: functional
T4 sequence (P9WMR3 whole entry): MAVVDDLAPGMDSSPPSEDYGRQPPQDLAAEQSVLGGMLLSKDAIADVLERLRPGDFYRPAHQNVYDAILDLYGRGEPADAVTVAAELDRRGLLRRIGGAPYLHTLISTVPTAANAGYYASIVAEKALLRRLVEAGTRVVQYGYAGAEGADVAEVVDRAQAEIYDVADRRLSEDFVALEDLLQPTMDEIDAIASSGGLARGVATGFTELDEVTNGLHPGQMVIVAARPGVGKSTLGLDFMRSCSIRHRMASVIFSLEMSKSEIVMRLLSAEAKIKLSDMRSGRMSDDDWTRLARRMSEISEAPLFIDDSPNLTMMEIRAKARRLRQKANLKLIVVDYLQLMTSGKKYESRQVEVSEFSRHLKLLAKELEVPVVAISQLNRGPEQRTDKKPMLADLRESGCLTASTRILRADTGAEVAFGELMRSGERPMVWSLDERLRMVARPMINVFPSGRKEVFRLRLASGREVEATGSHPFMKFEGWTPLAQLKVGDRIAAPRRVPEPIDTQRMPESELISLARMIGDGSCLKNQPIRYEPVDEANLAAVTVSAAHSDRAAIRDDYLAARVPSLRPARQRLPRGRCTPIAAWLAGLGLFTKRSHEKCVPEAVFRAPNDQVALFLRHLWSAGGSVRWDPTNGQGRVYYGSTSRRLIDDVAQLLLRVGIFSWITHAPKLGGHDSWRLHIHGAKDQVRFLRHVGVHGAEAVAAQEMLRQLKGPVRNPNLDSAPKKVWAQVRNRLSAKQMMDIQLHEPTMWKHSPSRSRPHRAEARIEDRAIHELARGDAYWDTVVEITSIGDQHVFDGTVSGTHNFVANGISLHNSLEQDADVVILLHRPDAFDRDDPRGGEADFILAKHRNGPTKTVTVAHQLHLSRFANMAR

[10] = THP-1 cell cytotoxicity, dose response, cytotoxicity control for non-replicating M. tuberculosis project (AID 489025); assay type: functional
[11] = Luminescence Cell-Based Dose Response HTS to Identify Inhibitors of 5'UTR Stem-Loop Driven Prion Protein mRNA Translation in H4 Neuroglioblastoma Cells. [Related pubchem assays: 1827 (Project Summary), 1813 (Primary HTS)]; assay type: functional
[12] = alpha-synuclein stem-loop luciferase translation blockers – H4 neuroglioma cells, luminescence, confirmation (AID 1988); assay type: functional, cell-based
cells = assay type: functional
[13] = luciferase reporter signal suppression in cells – H4 neuroglioma cells, luminescence, dose response (AID 1990); assay type: functional, cell-based
[14] = test system: Streptococcus sp. 'group A'; experiment: Streptococcus pyogenes SK(-)GAS viability under kanamycin – luminescence, BacTiterGlo, confirmation, counter-screen for streptokinase expression inhibitor project, dose response (AID 1900); assay type: functional, organism-based
Streptococcus = experiment: GAS UMAA2166 growth inhibition – luminescence, BacTiterGlo, counter-screen for streptokinase expression inhibitor project, dose response (AID 1915); assay type: functional, organism-based;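 note: potency for reduction of bacterial viability or growth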
H9c2 = experiment: cells; assay type: functional, cell-based; settings: Rattus norvegicus, H9c2, Myocardium;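 note: confirmatory concentration-response retest of ultra-high-throughput screening hits for modulation of myocardial damage; cell death induced by hydrogen peroxide oxidative stress; compound pretreatment for 60 min then peroxide exposure for 2 h; potency is for protecting the cells against peroxide damage rather than for killing them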
[15] = P. falciparum Dd2 growth inhibitors, dose response, SYBR Green, cherry-picked samples (AID 1159567); assay type: functional, cell-based

C=CCNc1nc(-c2ccc(Cl)cc2)cs1
IC50 (Protein skinhead-1): > 100 µM (inactive)
AC50 (Cytochrome P450 2D6): 25.1 µM (inconclusive)

Cc1cccc(Cn2c(Sc3nc(C)cs3)nc3c2c(=O)[nH]c(=O)n3C)c1
IC50 (Protein skinhead-1): > 100 µM (inactive)

Cc1ccc([N+](=O)[O-])cc1N=C(S)NCCc1ccccc1
IC50 (Fatty acid synthase [1]): 12.1 µM (active)
IC50 (Fatty acid synthase [2]): 13.1 µM (active)

O=C(Nc1ncc([N+](=O)[O-])s1)c1ccc2c(c1)OCO2
EC50 (BJ [3]): > 150 µM (inconclusive)
EC50 (Protein RecA): 16.5 µM (active)
EC50 (BJ [4]): 14.1 µM (active)
EC50 [5]: 10.3 µM (active)
EC50 [6]: 0.324 µM (active)
EC50 [7]: 2.39 µM (active)
EC50 (BJ [8]): 13.5 µM (active)
AC50 [9]: 21.2 µM (active)
CC50 [10]: 28.9 µM (active)
EC50 [11]: 7.3 µM (active)
EC50 [12]: 3.42 µM (active)
IC50 (cells): 34.4 µM (active)
EC50 [13]: 4.23 µM (active)

O=C(Nc1nnc(-c2ccco2)o1)c1ccc(Cl)s1
EC50 [14]: 3.01 µM (active)
EC50 (Streptococcus): 10.1 µM (active)
CC50 [10]: > 40 µM (active)
IC50 (cells): 1.57 µM (active)

COc1ccc(C2CC(c3cccs3)n3nc(N)nc3N2)cc1 (configuration not stated)
IC50 (H9c2): > 79 µM (inactive)

COC(=O)c1cccc(S(=O)(=O)N(Cc2ccco2)Cc2cc3cc(OC)ccc3nc2O)c1
IC50 (H9c2): 31.7 µM (inactive)

CC(C)(C)OC(=O)CNC(=O)c1[nH]cnc1C(=O)NCC(=O)OCc1ccccc1
IC50 (H9c2): > 79 µM (inactive)

CC(C)c1ccc(NC(=O)NCc2cccnc2)cc1
IC50 (Protein skinhead-1): > 100 µM (inactive)

O=C(Cn1c(=O)c2sccc2n(Cc2ccc([N+](=O)[O-])cc2)c1=O)NCCc1ccccc1
IC50 (Fatty acid synthase [1]): 5.6 µM (active)
IC50 (Fatty acid synthase [2]): 4.79 µM (active)

COc1ccc(NC(=O)N(CCCN(C)C)Cc2cc3cc(OC)ccc3nc2O)cc1
IC50 (H9c2): > 79 µM (inactive)

Cc1c(Cl)c([N+](=O)[O-])nn1CCCC(=O)Nc1cccc(Cl)c1
IC50 (Fatty acid synthase [1]): 17.6 µM (active)
IC50 (Fatty acid synthase [2]): 16.2 µM (active)

O=C(CCc1nc(O)c2ccccc2n1)N1CCCc2ccccc21
IC50 (H9c2): > 79 µM (inactive)

O=[N+]([O-])c1ccc(S(=O)(=O)NN=Cc2ccc(Cl)c(Cl)c2)cc1
IC50 (Fatty acid synthase [1]): 1.52 µM (active)
IC50 (Fatty acid synthase [2]): 2.68 µM (active)

CC(C)NC(=O)N(C)C[C@H]1Oc2c(NC(=O)Nc3ccc(C(F)(F)F)cc3)cccc2C(=O)N([C@H](C)CO)C[C@@H]1C
IC50 (Fatty acid synthase [1]): 0.842 µM (active)
IC50 (Fatty acid synthase [2]): 1.08 µM (active)

COc1ccc(N2CC(C(=O)NCc3nnc(O)c4ccccc34)CC2=O)cc1 (configuration not stated)
IC50 (H9c2): 12.9 µM (active)

O=C(c1cc(O)nc2ccccc12)N1CCN(S(=O)(=O)c2ccc(Cl)cc2)CC1
IC50 (H9c2): 14.4 µM (active)

O=C(Cn1[nH]c(=O)c2ccccc2c1=O)NNC(=O)c1ccccc1
IC50 (H9c2): 18.6 µM (active)

Cc1cc(C)c2c(N)c(C(=O)N/N=C/c3cccnc3)sc2n1
IC50 (H9c2): > 79 µM (inactive)

COC(=O)C1=C(C)N=C(C)/C(=C(/O)OC)C1c1ccc(OC(=O)c2ccco2)cc1 (configuration not stated)
IC50 (Protein skinhead-1): > 100 µM (inactive)

COc1ccc2c3c([nH]c2c1)[C@@H](CO)N(Cc1cccc(Cl)c1)CC31CN(C(C)=O)C1
AC50 [15]: 10.6 µM (active)

COc1ccc2c3c([nH]c2c1)[C@@H](CO)N(C(=O)Cc1ccccc1)CC31CCN(C(=O)Cc2ccccc2)CC1
AC50 [15]: 4.77 µM (active)

CCCC(=O)N1CCC2(CC1)CN[C@@H](CO)c1[nH]c3cc(OC)ccc3c12
AC50 [15]: 6.24 µM (active)

CCCNC(=O)N1CCC2(CC1)CN(Cc1cccc(F)c1)[C@@H](CO)c1[nH]c3cc(OC)ccc3c12
AC50 [15]: 10.2 µM (active)

C[C@H]1CN([C@@H](C)CO)C(=O)c2c(c3ccccc3n2C)-c2ccccc2CO[C@@H]1CN(C)S(=O)(=O)c1ccccc1F
AC50 [15]: 3.81 µM (active)

O=C(Nc1ccccc1)OCCCc1ccccc1 [3-PHENYLPROPYL PHENYLCARBAMATE]
IC50 (Protein skinhead-1): 68.6 µM (inactive)
